Measured values reported in patent US20130052281A1, “NOVEL COMPOUNDS” (Takeda Pharmaceutical Company Limited, priority 2011, published 2013).

Biological target: Human DAAO enzyme (Homo sapiens, UniProt P14920)
Test: In Vitro DAAO Enzyme Assay (Amplex Red detection of H2O2 from D-Serine)
Assay type: biochemical
Conditions: inhibition of DAAO activity in the presence of 10 mM D-Serine; 60 minutes at 25° C.; ten point dose-response
Protocol: The Km of D-Serine was measured for each enzyme batch to maintain consistency; this Km was used in subsequent assays.
On the day of the assay compounds were serially diluted in DMSO before being diluted 1:20 with assay buffer (20 mM Tris ph 7.4). […] Finally 5 μl ‘Amplex’ red reagent (Invitrogen) was added to all wells as per manufacturer's protocol. The plate was incubated for 60 minutes in the dark at 25° C. and the fluorescence in each well was measured in the Envision plate reader.
Concentration response curves were generated using the average of duplicate wells for each data point and analyzed using non-linear regression and four parameter curve fit.

Sequence of Human DAAO enzyme (P14920 whole entry): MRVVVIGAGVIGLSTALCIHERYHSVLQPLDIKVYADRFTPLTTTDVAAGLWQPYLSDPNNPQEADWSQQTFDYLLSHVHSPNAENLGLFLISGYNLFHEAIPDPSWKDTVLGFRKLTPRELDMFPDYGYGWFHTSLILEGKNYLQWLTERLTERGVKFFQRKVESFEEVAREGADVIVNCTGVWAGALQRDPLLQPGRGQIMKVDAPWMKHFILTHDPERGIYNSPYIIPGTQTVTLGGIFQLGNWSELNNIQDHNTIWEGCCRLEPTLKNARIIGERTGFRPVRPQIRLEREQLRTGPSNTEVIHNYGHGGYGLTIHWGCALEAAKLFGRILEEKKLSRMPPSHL

Row | IC50 [nM] | Structure (SMILES)
1 | 23 | O=c1[nH]nc(CCc2cncc(C(F)(F)F)c2)cc1O [Example 12, 4-Hydroxy-6-{2-[5-(trifluoromethyl)pyridin-3-yl]ethyl}pyridazin-3(2H)-one]
2 | 22 | O=c1[nH]nc(CCc2cccc(OC(F)(F)F)c2)cc1O [Example 10, 4-Hydroxy-6-{2-[3-(trifluoromethoxy)phenyl]ethyl}pyridazin-3(2H)-one]
